Source: PubChem BioAssay (NCI)
Values joined by “and” are separate entries in the source; they are usually repeats but may differ in a detail not shown here. Equal entries are not always repeated.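 Cells were grown in 96-well plates and exposed to each compound for 48 hours at five concentrations; endpoints were interpolated linearly between bracketing concentrations, or set to the highest concentration if not reached. GI50 marks 50% less growth. The concentration for full growth arrest is given as TGI.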

Assays:
Assay in all cases: growth of human tumour cells (NCI), 48 h
KM12 colon = test system: KM12 colon
MALME-3M melanoma = test system: MALME-3M melanoma
NCI-H460 lung = test system: NCI-H460 lung
SF-268 CNS = test system: SF-268 CNS
UACC-257 melanoma = test system: UACC-257 melanoma
UACC-62 melanoma = test system: UACC-62 melanoma
SR leukemia = test system: SR leukemia
MCF7 breast = test system: MCF7 breast
MDA-MB-231 breast = test system: MDA-MB-231 breast
PC-3 prostate = test system: PC-3 prostate

Structure (SMILES) | TGI (KM12 colon) [µM] | TGI (MALME-3M melanoma) [µM] | TGI (NCI-H460 lung) [µM] | GI50 (SF-268 CNS) [µM] | TGI (SF-268 CNS) [µM] | GI50 (UACC-257 melanoma) [µM] | TGI (UACC-257 melanoma) [µM] | GI50 (UACC-62 melanoma) [µM] | TGI (UACC-62 melanoma) [µM] | TGI (SR leukemia) [µM] | GI50 (KM12 colon) | GI50 (MCF7 breast) [µM] | TGI (MCF7 breast) [µM] | GI50 (MDA-MB-231 breast) [µM] | TGI (MDA-MB-231 breast) [µM] | GI50 (NCI-H460 lung) [µM] | GI50 (PC-3 prostate) [µM] | TGI (PC-3 prostate) [µM] | GI50 (SR leukemia) [µM] | GI50 (MALME-3M melanoma) [µM]
CCOP1(=O)C=C(C)C(=C(Cl)Cl)C(C)=C1 (centres undefined) | 5.11 | 47.3 | > 100 | 15.8 | > 100 | 11.5 | 89 | 9.31 | 23.6 |  |  |  |  |  |  |  |  |  |  | 
Cc1ccc(NC(=O)OCC(COc2ccc(Cl)cc2Cl)OC(=O)Nc2ccc(C)cc2)cc1 (centres undefined) | > 100 | > 100 | > 100 |  | > 100 |  | > 100 |  | > 100 |  |  |  |  |  |  |  |  |  |  | 
CCN(CC)CCn1c2ccccc2c(=O)c2c(OC)ccc(OC)c21 | > 100 | > 100 | > 100 |  | > 100 |  | > 100 |  |  | > 100 |  |  |  |  |  |  |  |  |  | 
CC1CC[P+](c2ccccc2)(c2ccccc2)CC1 | > 100 | > 100 | > 100 |  |  |  | > 100 |  | > 100 | > 100 |  |  |  |  |  |  |  |  |  | 
CCOC1CC2OC(=O)C1C=C2C(=O)OC (centres undefined) | > 100 | 38.5 | > 100 |  | > 100 |  | 74.2 |  | > 100 |  |  |  |  |  |  |  |  |  |  | 
COc1cc(/C=C2\C[C@H]3[C@@H]4CC=C5C[C@@H](OC(C)=O)CC[C@]5(C)[C@H]4CC[C@]3(C)[C@H]2OC(C)=O)ccc1OCCN1CCCC1 | 17.7 |  | 23.1 | 8.94 | 18.8 | 10.8 | 20.1 | 9.48 | 17.5 |  | 8.81 µM | 11.1 | 29.6 | 9.01 | 17 | 10.2 | 8 | 20.4 |  | 
CN(C)c1ccc2nc(CC(O)(C(F)(F)F)C(F)(F)F)ccc2c1 | > 10 | > 10 | > 10 |  | > 10 |  | > 10 |  | > 10 |  |  |  | > 10 |  | > 10 |  |  | > 10 |  | 
CSc1ccc(C(=O)/C=C/c2ccccc2Cl)cc1 | 42 |  | 70 | 22.4 | 53.3 | 15.2 | 29.3 | 15.7 | 33.5 | 22.4 | 16.6 µM | 32.2 | > 100 | 13.3 | 31.2 | 25.2 | 16.5 | 32.4 | 2.23 | 
O=c1c(Cl)cc2nc3ccccc3sc-2c1Cl | 38.4 | 23.6 | 35.1 |  | 28.5 |  | 8.2 |  | 24.4 | 30 |  |  | 32.4 |  | 21.3 |  |  |  |  | 
COc1ccc2nc(NC(=O)C(=O)NNC(=O)c3ccncc3)sc2c1 |  | > 100 | > 100 |  | > 100 |  | > 100 |  | > 100 |  |  |  |  |  |  |  |  |  |  | 
C[Si](C)(C)C(Sc1ccccc1)(Sc1ccccc1)Sc1ccccc1 | > 100 |  | > 100 |  | > 100 |  | > 100 |  | > 100 | > 100 |  |  |  |  |  |  |  |  |  | 
O=C1NC(c2cccc(OCc3ccccc3)c2)Nc2ccccc21 (centres undefined) | 73.9 | 35 | 22.9 |  | > 51 |  | 50.7 |  | > 27.1 | 0.47 |  |  | 15.2 |  | 4.69 |  |  |  |  | 
C1C[OH+]CC[OH+]CCNCC[OH+]CC[OH+]CCN1.Cl.[Cl-].[Pt+4] |  |  | > 100 | > 100 | > 100 |  |  | > 100 | > 100 |  |  |  |  |  |  | > 100 |  |  |  | 
CN1CCN(Cc2cc(NC(=O)c3cccc(C#Cc4cccc5[nH]nc(N)c45)c3)cc(C(F)(F)F)c2)CC1 | 2.67 | 2.69 | 3.06 | 1.53 | 3.15 | 1.83 | 3.39 | 1.69 | 3.22 |  | 1.32 µM | 1.65 | 3.26 | 1.38 | 2.73 | 1.67 | 1.81 | 3.52 |  | 1.23
Cn1cnc([N+](=O)[O-])c1Sc1nccc(=O)[nH]1 | > 100 | > 100 | > 100 |  | > 100 |  | > 100 |  | > 100 | > 100 |  |  |  |  |  |  |  |  |  | 
CCOC(=O)C(=O)Nc1ccccc1C(C)C | > 100 | > 100 | > 100 |  | > 100 |  | > 100 |  | > 100 | > 100 |  |  |  |  |  |  |  |  |  | 
CCCCCCCCCCCCCB(O)O | > 100 | > 100 | > 100 |  | > 100 |  | > 100 |  | > 100 |  | > 100 µM and 35.8 µM |  |  |  |  |  |  |  |  | 
COC(=O)C(/C(=N\NC(N)=S)C(=O)Nc1ccccc1[N+](=O)[O-])c1cnc2ccccc2n1 (centres undefined) | > 100 | > 100 | > 100 |  | > 100 |  | > 100 |  | > 100 | > 100 |  |  |  |  |  |  |  |  |  | 
Cc1cc(=O)oc2cc(OC/C=C3\CCC(=O)O3)ccc12 | 47.9 | 33 | > 62.7 | 15.3 | 50.2 | 21.5 | > 62.1 | 13.8 | 28.7 |  | 18 µM | 5.73 | 27.6 | 16.9 | 34.7 | 19.3 | 9.01 | 34.1 |  | 13.6
C=CCN(N=O)C(=O)NCCCCC(NC(C)=O)C(=O)NCc1ccccc1 (centres undefined) | > 100 | > 100 | > 100 |  | > 100 |  | > 100 |  | > 100 |  |  |  |  |  |  |  |  |  |  | 
Cc1ccccc1C1CC(c2ccccc2)=NO1 (centres undefined) | > 100 | > 100 | > 100 |  | > 100 |  | > 100 |  | > 100 | > 100 |  |  |  |  |  |  |  |  |  | 
C=C(CCCO)[C@@H]1CC[C@@](C)(O)[C@H]1C | > 100 | > 100 | > 100 |  |  |  | > 100 |  | > 100 | > 100 |  |  |  |  |  |  |  |  |  | 
